Source: ChEMBL document CHEMBL1201862, “PubChem BioAssay data set” (2004)
Active and inactive are the calls of the source.

Key:
[1] = biological target: DNA dC->dU-editing enzyme APOBEC-3G (Homo sapiens, UniProt Q9HC16); experiment: Dose Response confirmation of small molecule APOBEC3G DNA Deaminase Inhibitors via a fluorescence-based single-stranded DNA deaminase assay. [Related pubchem assays (depositor defined):AID493012, AID493028]; assay type: functional
[2] = reduction of Shn3 3'UTR-driven luciferase in osteoblasts – cell-based, Clone20 osteoblasts, firefly luciferase, cherry-picked, dose response (AID 624132); assay type: functional;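 also: firefly luciferase luminescence from reporter carrying the Shn3 3'UTR in osteoblasts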
[3] = loss of viability in HepG2 cells – cell-based, CellTiter-Glo, cherry-picked, cytotoxicity control for Shn3 inhibitor project, dose response (AID 624134); assay type: functional
[4] = non-specific 3'UTR reporter inhibition in Clone20-Shn3RL – cell-based, Renilla luciferase, cherry-picked, counter-screen for Shn3 inhibitor project, dose response (AID 624133); assay type: functional
[5] = blockers of HIV-1 envelope-mediated cell-cell fusion – cherry-pick, dose response (AID 652057); assay type: functional, cell-based
[6] = blockers of HIV-1 ZM109 envelope-driven cell-cell fusion – HeLa effector, CEM target cells, luciferase, cherry-pick, dose response (AID 652058); assay type: functional, cell-based;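 also: luciferase signal from HIV-1 Env mediated cell-cell fusion of effector and target cells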
[7] = HIV-1 AD8 envelope cell-cell fusion blockers – cherry-pick, dose response (AID 652062); assay type: functional, cell-based;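 also: luciferase signal from cell-cell fusion driven by HIV-1 clade B AD8 Env; potency is for inhibitors of fusion seen as a drop in luminescence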
[8] = biological target: Glyceraldehyde-3-phosphate dehydrogenase (Homo sapiens, UniProt P04406)
Sequence of Glyceraldehyde-3-phosphate dehydrogenase (P04406 whole entry): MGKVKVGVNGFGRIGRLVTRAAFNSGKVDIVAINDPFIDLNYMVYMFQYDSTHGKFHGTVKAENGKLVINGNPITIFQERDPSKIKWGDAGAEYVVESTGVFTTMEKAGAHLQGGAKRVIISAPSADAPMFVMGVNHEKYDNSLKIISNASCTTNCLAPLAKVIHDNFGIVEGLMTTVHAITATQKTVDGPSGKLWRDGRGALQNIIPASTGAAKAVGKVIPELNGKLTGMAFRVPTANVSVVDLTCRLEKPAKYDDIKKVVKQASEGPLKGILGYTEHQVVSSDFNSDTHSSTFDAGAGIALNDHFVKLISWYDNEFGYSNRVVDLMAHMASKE

[9] = biological target: T1, Alkaline phosphatase, tissue-nonspecific isozyme (Homo sapiens, UniProt P05186); experiment: potency against alkaline phosphatase TNAP – biochemical, luminescent, dose response, SAR follow-up (AID 1056)
T1 sequence (P05186 whole entry): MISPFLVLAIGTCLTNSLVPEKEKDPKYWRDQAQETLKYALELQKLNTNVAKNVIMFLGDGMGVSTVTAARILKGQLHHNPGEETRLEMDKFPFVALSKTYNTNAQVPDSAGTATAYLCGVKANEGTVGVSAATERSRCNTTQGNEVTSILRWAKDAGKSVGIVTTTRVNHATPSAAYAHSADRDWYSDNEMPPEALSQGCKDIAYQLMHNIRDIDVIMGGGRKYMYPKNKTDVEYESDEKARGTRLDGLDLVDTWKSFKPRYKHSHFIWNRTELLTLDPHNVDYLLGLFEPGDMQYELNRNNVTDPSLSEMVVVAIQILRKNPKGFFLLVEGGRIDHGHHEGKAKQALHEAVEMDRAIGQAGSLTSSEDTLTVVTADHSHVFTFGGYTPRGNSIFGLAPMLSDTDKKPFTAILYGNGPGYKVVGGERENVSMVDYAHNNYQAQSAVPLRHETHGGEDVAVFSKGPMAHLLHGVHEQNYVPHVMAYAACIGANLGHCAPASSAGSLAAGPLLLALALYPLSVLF

[10] = biological target: T2, Corticotropin-releasing factor receptor 2/Corticotropin-releasing factor-binding protein (Homo sapiens, UniProt P24387+Q13324); experiment: Dose Response confirmation of uHTS hits for small molecule antagonists of the CRF-binding protein and CRF-R2 receptor complex.; assay type: functional; conditions: read-out: IC50_Mean
T2 sequence (Q13324 whole entry): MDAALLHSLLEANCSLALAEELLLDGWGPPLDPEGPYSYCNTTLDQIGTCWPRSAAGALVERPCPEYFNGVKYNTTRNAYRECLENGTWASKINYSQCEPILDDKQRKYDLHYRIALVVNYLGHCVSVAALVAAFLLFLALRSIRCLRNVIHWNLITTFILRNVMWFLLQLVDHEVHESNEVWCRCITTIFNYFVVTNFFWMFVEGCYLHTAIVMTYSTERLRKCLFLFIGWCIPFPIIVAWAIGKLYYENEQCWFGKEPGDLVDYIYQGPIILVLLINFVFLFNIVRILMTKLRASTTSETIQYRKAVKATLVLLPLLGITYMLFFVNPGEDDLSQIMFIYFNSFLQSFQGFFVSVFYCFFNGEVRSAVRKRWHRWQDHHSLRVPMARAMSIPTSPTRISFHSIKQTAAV
T2 sequence (P24387 whole entry): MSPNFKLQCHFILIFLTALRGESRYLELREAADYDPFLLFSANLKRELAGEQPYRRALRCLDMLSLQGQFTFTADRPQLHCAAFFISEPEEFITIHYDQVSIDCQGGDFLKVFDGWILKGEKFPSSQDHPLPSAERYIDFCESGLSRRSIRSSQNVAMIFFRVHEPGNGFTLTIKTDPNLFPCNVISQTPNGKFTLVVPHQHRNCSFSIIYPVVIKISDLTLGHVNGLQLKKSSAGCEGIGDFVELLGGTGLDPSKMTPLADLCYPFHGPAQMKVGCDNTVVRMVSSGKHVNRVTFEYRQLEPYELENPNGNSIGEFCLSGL

[11] = biological target: T2, Corticotropin-releasing factor receptor 2/Corticotropin-releasing factor-binding protein; experiment: activators of CRF receptor 2 with binding protein – uHTS hits, confirmation (AID 602473); assay type: functional; conditions: read-out: EC50_Mean
[12] = blockers of CRF-binding protein–CRF-R2 complex – cell-based, uHTS hits, 384-well, dose response (AID 651639); assay type: functional, Homo sapiens; conditions: read-out: IC50_Mean
cells = assay type: functional
Estrogen receptor beta = Estrogen receptor beta (Homo sapiens, UniProt Q92731);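 also: recombinant ER-beta bound to coactivator SRC1 peptide in presence of estradiol agonist; inhibitors block coactivator peptide binding and lower the FRET signal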
Sequence of Estrogen receptor beta (Q92731 whole entry): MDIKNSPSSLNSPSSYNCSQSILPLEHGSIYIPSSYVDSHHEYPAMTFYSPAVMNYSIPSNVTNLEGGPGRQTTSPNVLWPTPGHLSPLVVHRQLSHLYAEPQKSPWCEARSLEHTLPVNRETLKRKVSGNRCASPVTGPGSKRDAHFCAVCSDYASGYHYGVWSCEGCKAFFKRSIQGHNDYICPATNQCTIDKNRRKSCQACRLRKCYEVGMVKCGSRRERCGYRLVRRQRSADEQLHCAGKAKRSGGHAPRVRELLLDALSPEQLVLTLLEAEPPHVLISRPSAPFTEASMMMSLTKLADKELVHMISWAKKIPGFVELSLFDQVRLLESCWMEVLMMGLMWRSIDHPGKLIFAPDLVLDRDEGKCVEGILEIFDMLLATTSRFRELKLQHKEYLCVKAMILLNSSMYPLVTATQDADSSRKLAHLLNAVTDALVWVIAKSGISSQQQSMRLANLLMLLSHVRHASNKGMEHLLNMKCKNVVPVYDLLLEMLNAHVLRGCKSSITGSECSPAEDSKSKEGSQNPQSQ

[13] = biological target: T3, Heat shock factor protein 1 (Mus musculus, UniProt P38532); experiment: enhancement of HSF1-driven luciferase signal – cell-based, NIH3T3, luminescence, dose retest, confirmation (AID 435004); assay type: functional;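 also: stress induced by proteasome inhibitor MG132 added 30 min after compound; luciferase reporter driven by HSF1 response element in NIH3T3 cells; actives raise luminescence as potentiators of the MG132 stress response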
T3 sequence (P38532 whole entry): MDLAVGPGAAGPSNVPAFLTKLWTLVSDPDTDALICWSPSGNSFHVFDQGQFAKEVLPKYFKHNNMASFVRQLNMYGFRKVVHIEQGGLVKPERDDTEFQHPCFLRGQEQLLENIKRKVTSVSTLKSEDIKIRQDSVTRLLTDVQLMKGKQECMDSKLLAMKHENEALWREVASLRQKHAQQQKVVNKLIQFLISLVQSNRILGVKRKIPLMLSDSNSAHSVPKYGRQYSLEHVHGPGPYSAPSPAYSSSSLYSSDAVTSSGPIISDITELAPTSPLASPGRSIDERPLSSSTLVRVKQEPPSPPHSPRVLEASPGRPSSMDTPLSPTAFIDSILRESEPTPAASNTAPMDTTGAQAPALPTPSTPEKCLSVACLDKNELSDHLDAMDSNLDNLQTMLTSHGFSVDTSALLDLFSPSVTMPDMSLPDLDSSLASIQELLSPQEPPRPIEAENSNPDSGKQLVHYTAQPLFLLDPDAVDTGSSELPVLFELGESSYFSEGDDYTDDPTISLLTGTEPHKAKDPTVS

[14] = biological target: Induced myeloid leukemia cell differentiation protein Mcl-1 (Homo sapiens, UniProt Q07820); assay type: functional
Sequence of Induced myeloid leukemia cell differentiation protein Mcl-1 (Q07820 whole entry): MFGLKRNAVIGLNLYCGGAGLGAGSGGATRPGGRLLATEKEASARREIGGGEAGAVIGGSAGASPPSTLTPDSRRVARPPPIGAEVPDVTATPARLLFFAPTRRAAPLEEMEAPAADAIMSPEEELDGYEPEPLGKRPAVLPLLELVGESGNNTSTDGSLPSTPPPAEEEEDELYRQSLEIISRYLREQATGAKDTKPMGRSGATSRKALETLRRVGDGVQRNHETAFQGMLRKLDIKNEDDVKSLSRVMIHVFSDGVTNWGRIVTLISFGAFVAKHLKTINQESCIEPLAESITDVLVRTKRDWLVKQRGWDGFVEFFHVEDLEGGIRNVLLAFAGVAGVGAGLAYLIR

Sequence of DNA dC->dU-editing enzyme APOBEC-3G (Q9HC16 whole entry): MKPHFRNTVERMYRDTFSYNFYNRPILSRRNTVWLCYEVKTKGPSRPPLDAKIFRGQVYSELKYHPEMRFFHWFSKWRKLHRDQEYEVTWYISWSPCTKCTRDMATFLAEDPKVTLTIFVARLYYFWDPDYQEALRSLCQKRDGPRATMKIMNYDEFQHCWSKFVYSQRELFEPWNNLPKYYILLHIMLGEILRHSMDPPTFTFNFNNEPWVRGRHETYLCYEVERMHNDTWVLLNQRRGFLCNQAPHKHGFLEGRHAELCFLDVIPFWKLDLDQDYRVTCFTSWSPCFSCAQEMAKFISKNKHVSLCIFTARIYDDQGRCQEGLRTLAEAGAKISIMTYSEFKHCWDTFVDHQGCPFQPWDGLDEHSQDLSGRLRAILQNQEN

SMILES | IC50 [10] | EC50 [11] | IC50 [12] | other results
O=[N+]([O-])c1ccc(N2CCN(C(=S)c3cccc([N+](=O)[O-])c3)CC2)cc1 |  |  |  | IC50 [1]: 47.7 µM (active)
CSc1ccc(CN(C)C(=O)c2cccc(S(=O)(=O)N3CCN(Cc4ccccc4)CC3)c2)cc1 |  |  |  | AC50 [2]: 2.89 µM (active); AC50 [3]: 64.6 µM (active); AC50 [4]: 14.3 µM (active); AC50 [5]: 10.3 µM (active); AC50 [6]: 10.3 µM (active); AC50 [7]: 8.39 µM (active)
COc1ccc(S(=O)(=O)Nc2ccc3ccccc3c2)cc1 |  |  |  | IC50 [8]: > 100 µM (not active); IC50 [9]: > 100 µM (inactive)
O=C(Oc1c(Br)cc([N+](=O)[O-])cc1Br)c1cccnc1 | 9.69 µM (active) | > 53 µM (inactive) | > 20 µM (inactive) | 
Cn1c(COc2ccccc2)nnc1SCC(=O)c1cccc([N+](=O)[O-])c1 | 23.4 µM (active) | > 53 µM (inactive) | 7.77 µM (active) | 
CCCCNC(=O)COC(=O)c1cc(F)c(F)cc1Cl |  |  |  | IC50 (cells): 8.58 µM (active)
Cc1ccccc1Cn1ccc(NC(=O)c2cc3ncc(Br)cn3n2)n1 | < 0.368 µM (active) | > 53 µM (inactive) | 2.65 µM (active) | 
O=C(CNC(=O)c1ccco1)OCc1ccc(Cl)cc1 |  |  |  | IC50 (Estrogen receptor beta): > 50 µM (not active)
CCn1cc(SCC(=O)NCc2ccc3c(c2)OCO3)c2ccccc21 |  |  |  | IC50 (Estrogen receptor beta): > 50 µM (not active)
NS(=O)(=O)c1ccc(CCNC2CC(=O)N(CCc3ccccc3)C2=O)cc1 (stereo not given) |  |  |  | IC50 (Estrogen receptor beta): > 50 µM (not active)
Cc1ccc2cccc(Oc3ncnc4scc(-c5ccccc5)c34)c2n1 | 7.86 µM (active) | > 53 µM (inactive) | 9.74 µM (active) | 
COc1ccc(C(=O)COC(=O)c2cccnc2SC)cc1 | 1.85 µM (active) | > 53 µM (inactive) | 3.77 µM (active) | EC50 [13]: > 260 µM (inactive)
O=C(CN1C(=O)/C(=C2\SC(=S)N(C3CCS(=O)(=O)C3)C2=O)c2ccccc21)Nc1ccccc1 (stereo not given) |  |  |  | IC50 [14]: 5.8 µM (active)
